According to patent publication US20210238173A1, “MITOGEN-ACTIVATED PROTEIN KINASE KINASE 7 INHIBITORS” (Yeda Research and Development Co. Ltd., priority 2018, published 2021):
Where two headings read alike, the source gives them in different places.

Key:
MKK7 [1] = target: T1, MKK7 (Homo sapiens, UniProt O14733); assay: In vitro kinase activity assay for MKK7 (Nanosyn); format: biochemical
T1 construct: purchased Nanosyn (contract assay)
T1 sequence (O14733 1-419): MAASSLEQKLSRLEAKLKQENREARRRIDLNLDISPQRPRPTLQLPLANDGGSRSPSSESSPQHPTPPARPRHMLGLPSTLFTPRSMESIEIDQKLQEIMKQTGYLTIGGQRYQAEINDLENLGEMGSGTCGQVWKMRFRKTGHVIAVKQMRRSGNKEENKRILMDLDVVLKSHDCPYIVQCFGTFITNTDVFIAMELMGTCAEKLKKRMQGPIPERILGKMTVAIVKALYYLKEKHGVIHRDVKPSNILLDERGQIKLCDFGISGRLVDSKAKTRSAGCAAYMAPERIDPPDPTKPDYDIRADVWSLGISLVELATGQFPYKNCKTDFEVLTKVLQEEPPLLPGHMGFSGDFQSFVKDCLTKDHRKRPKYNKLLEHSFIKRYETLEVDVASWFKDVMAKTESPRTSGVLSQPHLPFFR
Procedure: Based on visual inspection of the top 500 predictions, 10 compounds were selected for synthesis and testing (see, Table 1). The “Docking rank” is given in its respective run, whereas four virtual libraries of acrylamides were docked separately, based on the amine precursor for the acrylamide (primary or secondary aliphatic amines, primary or secondary aromatic amines). In vitro kinase activity assay was carried out by Nanosyn, as described below.
In Vitro Activity Assays for MKK7 or MKK4 (Carried by Nanosyn):
Exemplary test compounds, according to some embodiments of the present invention, were diluted in DMSO to a final concentration that ranged from 10 μM to 0.0565 nM, while final concentration of DMSO in all assays was kept at 1%. Reference compound, Staurosporine, was tested in a similar manner. […] After incubation, activity of now activated JNK1 was tested in the presence of 30 μM ATP ATP for 17 h (MKK7) or 4 h (MKK4).

MKK7 [2] = target: T2, MKK7 (Homo sapiens, UniProt O14733); assay: Intact protein mass spectrometry covalent labeling; format: binding; details: 4° C., molecule 20 μM, protein 10 μM
T2 construct: MKK7 isoform 1 (103-426 residues) with a C-terminal 6-His tag; 6-His (C); made in house; host or cells: E. coli Rosetta2 (DE3) pLysS
T2 sequence (O14733 103-426 isoform O14733-3): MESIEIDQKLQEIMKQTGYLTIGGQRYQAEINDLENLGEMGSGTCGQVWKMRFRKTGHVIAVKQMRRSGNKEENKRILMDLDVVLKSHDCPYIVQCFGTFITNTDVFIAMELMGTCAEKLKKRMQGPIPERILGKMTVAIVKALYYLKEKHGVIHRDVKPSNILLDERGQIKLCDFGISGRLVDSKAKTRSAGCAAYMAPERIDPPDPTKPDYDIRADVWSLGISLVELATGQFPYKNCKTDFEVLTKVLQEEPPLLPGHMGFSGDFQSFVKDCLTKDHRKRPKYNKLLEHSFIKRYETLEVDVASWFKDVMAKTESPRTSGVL
Procedure: Intact Protein Mass Spectrometry:
Samples were injected after indicated incubation times into LC/MS (Waters ACUITY UPLC class H), in positive ion mode using electrospray ionization. C4 column (300 Å, 1.7 μM, […]×100 mm) was held at 40° C., and the autosampler at 10° C. Desolvation temperature was 500° C. with flow rate of 1000 liter/hour. The voltage used were 0.69 kV for the capillary and 46 V for the cone. Spectra were deconvoluted using MaxEnt1 software.
After 1 hour or 16 hours incubation at 4° C.

[3] = Metabolic stability in rat liver microsomes; format: in vitro ADME; details: for half-life: rat, liver microsomes
Description: A reference compound, REF1250, was used in this study: […]

pERK in HEK293 cells = assay: pERK response in HEK293 cells; format: cell-based; details: at 10 μM
Procedure: To rapidly assess the cellular activity (EC50) with full dose response curves of the MKK7 covalent inhibitors, according to some embodiments of the present invention, an in-cell western assay was adapted to a 384 well plate format over traditional western blot, and monitored phospho-JNK (pJNK) levels in response to osmotic shock. We first characterized the dynamics of pJNK in response to sorbitol. Sufficient dynamic range for pJNK is achieved at 20 minutes in HEK293 cells and at 40 minutes in 3T3 and Beas2B cells. The compound's activity was assessed by pre-treating cells with either compound or DMSO for 2 hours, followed by Sorbitol stimulation. The response of pJNK, and its substrates, pc-Jun and pATF2, was measured, as well as pP38, which is a substrate of MKK4 but not MKK7, and pERK in HEK293 cells, and the results are presented in Table 5 below.
With similar values for pcJun (2.26 μM and 1.67 μM, respectively) and pATF2 (2.79 μM 5.19 μM, respectively).

catalytic domain of MKK7 = target: T3, catalytic domain of MKK7 (Homo sapiens, UniProt O14733); assay: Activity based fluorescent labeling in bacterial lysate overexpressing MKK7; format: binding; details: pre-incubated with the lysate
T3 construct: over-expressing MKK7 (103-426 residues); 6-His (C); made in house; host or cells: E. coli Rosetta2 BL21 (DE3), crude lysate

AURKB (Aurora B) = AURKB (Aurora B) (Homo sapiens, UniProt Q96GD4); assay: Kinome selectivity screen AURKB; format: biochemical; details: 1 μM compound
AURKB (Aurora B), sequence (Q96GD4 whole entry): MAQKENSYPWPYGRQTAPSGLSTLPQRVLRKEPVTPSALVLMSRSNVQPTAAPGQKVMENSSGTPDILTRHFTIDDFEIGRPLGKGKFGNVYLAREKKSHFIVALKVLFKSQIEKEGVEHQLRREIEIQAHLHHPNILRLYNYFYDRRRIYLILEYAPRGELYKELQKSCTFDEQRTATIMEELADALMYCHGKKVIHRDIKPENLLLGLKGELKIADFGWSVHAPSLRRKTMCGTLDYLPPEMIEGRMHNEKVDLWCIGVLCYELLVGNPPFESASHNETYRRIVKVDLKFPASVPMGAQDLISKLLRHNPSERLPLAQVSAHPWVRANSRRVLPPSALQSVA
Procedure: (§1) Kinome Selectivity Screen:
(§2) Kinase selectivity was assessed using the Life Technologies SelectScreen Kinase Profiling Service in a custom panel of 76 kinases selected to provide broad representative coverage of all kinase families. Kinase activity assays employed either the Z′-LYTE or Adapta assay technologies with ATP concentrations at or near the KM, ATP for each kinase and a test compound concentration of 1 μM.

DYRK3 = DYRK3 (Homo sapiens, UniProt O43781); assay: Kinome selectivity screen DYRK3; format: biochemical; details: 1 μM compound
DYRK3, sequence (O43781 whole entry): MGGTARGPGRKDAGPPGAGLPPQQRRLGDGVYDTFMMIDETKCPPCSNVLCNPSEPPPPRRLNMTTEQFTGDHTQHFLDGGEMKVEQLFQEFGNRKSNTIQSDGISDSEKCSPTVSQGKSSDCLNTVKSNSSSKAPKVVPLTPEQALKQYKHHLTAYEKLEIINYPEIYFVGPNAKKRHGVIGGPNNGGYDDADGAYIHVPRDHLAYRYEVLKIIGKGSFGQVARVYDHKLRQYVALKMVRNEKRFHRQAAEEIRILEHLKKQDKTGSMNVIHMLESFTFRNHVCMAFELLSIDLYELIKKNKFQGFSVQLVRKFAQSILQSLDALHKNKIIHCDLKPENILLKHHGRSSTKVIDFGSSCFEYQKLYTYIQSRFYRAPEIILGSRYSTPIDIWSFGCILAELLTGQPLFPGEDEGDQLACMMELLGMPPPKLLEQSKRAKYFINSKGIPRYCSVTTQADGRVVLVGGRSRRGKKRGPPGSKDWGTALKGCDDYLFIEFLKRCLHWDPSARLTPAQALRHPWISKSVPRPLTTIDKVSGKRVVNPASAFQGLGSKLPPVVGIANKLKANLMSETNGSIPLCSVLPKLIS
Procedure: as §1, §2

MAP2K4 (MEK4) = MAP2K4 (MEK4) (Homo sapiens, UniProt P45985); assay: Kinome selectivity screen MAP2K4; format: biochemical; details: 1 μM compound
MAP2K4 (MEK4), sequence (P45985 whole entry): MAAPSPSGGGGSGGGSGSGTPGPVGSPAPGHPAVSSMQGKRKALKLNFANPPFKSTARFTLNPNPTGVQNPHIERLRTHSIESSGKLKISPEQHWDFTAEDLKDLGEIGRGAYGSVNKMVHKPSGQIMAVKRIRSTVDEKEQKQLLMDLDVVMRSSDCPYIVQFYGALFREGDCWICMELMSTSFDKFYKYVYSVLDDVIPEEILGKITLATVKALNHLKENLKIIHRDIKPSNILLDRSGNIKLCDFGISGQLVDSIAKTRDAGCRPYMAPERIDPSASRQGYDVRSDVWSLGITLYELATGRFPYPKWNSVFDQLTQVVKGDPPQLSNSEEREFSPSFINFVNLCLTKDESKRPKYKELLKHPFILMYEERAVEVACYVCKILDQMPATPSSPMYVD
Procedure: as §1, §2

MAP4K4 (HGK) = MAP4K4 (HGK) (Homo sapiens, UniProt O95819); assay: Kinome selectivity screen MAP4K4; format: biochemical; details: 1 μM compound
Procedure: as §1, §2

MARK1 (MARK) = MARK1 (MARK) (Homo sapiens, UniProt Q9P0L2); assay: Kinome selectivity screen MARK1; format: biochemical; details: 1 μM compound
MARK1 (MARK), sequence (Q9P0L2 whole entry): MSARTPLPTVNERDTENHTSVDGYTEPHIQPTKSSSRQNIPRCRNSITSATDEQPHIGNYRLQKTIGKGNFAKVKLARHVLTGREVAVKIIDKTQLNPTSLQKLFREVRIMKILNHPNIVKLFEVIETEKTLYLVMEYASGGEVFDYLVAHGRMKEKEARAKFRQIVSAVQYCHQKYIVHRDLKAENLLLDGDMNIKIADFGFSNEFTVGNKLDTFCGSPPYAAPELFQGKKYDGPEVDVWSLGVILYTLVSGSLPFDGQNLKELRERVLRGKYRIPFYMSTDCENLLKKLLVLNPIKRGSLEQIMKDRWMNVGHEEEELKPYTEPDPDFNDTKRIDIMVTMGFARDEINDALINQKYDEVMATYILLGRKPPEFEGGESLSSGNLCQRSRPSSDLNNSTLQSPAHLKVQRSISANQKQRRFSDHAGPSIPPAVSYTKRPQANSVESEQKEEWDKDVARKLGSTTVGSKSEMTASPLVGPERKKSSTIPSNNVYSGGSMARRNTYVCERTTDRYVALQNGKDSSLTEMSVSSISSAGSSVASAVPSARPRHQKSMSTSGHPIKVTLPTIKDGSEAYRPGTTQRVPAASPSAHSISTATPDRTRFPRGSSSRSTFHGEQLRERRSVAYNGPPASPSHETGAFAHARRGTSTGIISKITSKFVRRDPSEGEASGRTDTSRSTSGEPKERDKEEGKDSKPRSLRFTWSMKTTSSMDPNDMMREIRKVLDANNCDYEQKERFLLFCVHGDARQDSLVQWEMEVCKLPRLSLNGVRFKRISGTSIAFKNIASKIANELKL
Procedure: as §1, §2

NEK7 = NEK7 (Homo sapiens, UniProt Q8TDX7); assay: Kinome selectivity screen NEK7; format: biochemical; details: 1 μM compound
NEK7, sequence (Q8TDX7 whole entry): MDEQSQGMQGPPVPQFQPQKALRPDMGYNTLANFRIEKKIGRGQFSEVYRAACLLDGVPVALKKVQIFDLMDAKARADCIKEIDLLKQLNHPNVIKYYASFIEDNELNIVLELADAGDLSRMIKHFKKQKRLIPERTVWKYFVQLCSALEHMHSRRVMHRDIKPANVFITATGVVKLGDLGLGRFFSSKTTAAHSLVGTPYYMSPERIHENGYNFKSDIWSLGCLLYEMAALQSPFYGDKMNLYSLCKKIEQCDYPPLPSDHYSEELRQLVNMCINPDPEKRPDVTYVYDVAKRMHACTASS
Procedure: as §1, §2

NTRK1 (TRKA) = NTRK1 (TRKA) (Homo sapiens, UniProt P04629); assay: Kinome selectivity screen NTRK1; format: biochemical; details: 1 μM compound
NTRK1 (TRKA), sequence (P04629 33-796): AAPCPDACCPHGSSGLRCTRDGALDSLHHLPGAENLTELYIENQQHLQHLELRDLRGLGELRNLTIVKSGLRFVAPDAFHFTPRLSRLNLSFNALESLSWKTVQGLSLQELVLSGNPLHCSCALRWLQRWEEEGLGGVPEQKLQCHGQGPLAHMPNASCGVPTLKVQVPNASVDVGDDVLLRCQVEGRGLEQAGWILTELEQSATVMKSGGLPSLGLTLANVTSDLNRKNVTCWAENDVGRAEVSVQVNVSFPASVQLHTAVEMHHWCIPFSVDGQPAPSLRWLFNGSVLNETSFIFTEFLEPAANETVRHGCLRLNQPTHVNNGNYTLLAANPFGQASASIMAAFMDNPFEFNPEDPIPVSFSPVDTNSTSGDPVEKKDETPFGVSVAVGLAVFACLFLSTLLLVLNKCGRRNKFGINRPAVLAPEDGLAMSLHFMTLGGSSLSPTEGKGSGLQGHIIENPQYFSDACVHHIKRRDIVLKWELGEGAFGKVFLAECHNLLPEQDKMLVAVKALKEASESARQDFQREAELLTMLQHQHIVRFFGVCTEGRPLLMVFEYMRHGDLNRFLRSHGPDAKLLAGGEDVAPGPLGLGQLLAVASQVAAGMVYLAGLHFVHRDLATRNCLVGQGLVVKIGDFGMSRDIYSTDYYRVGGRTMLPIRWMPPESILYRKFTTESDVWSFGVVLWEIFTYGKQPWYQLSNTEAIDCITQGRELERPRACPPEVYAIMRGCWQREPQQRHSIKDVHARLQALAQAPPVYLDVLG
Procedure: as §1, §2

[4] = target: PIK3CA/PIK3R1 (p110 alpha/p85 alpha) (Homo sapiens, UniProt P42336); assay: Kinome selectivity screen PIK3CA/PIK3R1; format: biochemical; details: 1 μM compound
PIK3CA/PIK3R1 (p110 alpha/p85 alpha), sequence (P42336 whole entry): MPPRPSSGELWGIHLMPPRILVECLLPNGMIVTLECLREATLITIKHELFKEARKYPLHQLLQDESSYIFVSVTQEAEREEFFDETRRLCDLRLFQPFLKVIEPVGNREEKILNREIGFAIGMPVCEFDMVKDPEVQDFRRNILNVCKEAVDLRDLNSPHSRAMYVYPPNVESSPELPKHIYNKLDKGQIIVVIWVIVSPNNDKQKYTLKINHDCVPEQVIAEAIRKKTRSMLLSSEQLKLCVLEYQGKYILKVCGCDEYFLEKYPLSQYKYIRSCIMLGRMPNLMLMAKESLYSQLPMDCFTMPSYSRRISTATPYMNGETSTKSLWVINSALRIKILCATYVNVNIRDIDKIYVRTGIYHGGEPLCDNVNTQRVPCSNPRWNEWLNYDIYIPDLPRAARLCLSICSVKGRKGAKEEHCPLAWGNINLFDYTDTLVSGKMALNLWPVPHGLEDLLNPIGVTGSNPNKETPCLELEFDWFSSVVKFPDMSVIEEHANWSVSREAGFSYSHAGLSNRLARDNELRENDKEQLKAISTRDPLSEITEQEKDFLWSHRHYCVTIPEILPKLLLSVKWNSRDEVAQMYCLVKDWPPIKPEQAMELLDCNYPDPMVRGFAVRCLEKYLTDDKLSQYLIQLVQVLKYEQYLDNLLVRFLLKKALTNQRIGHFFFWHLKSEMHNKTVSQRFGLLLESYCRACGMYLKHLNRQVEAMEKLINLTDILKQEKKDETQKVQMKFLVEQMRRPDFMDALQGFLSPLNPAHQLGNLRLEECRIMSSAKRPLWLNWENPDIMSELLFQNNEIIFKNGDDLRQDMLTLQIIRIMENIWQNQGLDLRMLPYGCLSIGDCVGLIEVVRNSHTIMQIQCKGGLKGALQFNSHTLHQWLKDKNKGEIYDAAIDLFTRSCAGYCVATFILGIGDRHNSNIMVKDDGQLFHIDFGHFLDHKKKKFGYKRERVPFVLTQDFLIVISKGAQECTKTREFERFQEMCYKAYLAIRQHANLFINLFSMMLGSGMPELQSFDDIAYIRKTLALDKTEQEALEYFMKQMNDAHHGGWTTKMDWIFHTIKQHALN
PIK3CA/PIK3R1 (p110 alpha/p85 alpha), sequence (P27986 whole entry partner): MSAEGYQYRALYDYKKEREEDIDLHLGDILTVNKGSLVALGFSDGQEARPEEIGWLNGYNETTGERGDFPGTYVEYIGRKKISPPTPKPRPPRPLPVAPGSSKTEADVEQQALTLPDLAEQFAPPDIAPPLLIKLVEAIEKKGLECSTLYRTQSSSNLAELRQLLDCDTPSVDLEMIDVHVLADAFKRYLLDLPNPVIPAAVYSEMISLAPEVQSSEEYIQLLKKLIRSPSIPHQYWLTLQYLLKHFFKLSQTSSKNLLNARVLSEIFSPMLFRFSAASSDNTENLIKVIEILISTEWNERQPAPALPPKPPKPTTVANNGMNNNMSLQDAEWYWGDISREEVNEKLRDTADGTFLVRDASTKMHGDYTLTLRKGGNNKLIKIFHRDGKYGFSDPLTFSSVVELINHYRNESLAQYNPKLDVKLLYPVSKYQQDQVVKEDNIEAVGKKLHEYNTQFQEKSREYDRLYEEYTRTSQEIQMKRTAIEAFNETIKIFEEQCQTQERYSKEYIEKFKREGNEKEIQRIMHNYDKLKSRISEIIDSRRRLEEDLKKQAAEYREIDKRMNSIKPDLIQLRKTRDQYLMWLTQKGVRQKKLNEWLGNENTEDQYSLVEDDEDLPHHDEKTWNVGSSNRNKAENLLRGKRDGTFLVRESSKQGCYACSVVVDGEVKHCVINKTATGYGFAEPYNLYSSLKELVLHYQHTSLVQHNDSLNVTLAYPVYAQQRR
Procedure: as §1, §2

| Compound | IC50 (MKK7 [1]; read-out: MKK7 IC50 in vitro) | covalent labeling (MKK7 [2]; 1 hour) | covalent labeling (MKK7 [2]; 16 hours) | % remaining @ 40 min [3] | half-life [3] | potency towards MKK7 compared with Aurora kinase (MKK7 [1]; MKK7 nanomolar, Aurora kinase micromolar) | IC50 (MKK7 [1]; read-out: MKK7 IC50) | decrease in pERK (pERK in HEK293 cells) | competition of PCM548 binding (catalytic domain of MKK7) | inhibition at 1 µM (AURKB (Aurora B)) | inhibition at 1 µM (DYRK3) | inhibition at 1 µM (MAP2K4 (MEK4)) | inhibition at 1 µM (MAP4K4 (HGK)) | inhibition at 1 µM (MARK1 (MARK)) | inhibition at 1 µM (NEK7) | inhibition at 1 µM (NTRK1 (TRKA)) | inhibition at 1 µM [4] | effect on pERK levels (pERK in HEK293 cells) |
| --- | --- | --- | --- | --- | --- | --- | --- | --- | --- | --- | --- | --- | --- | --- | --- | --- | --- | --- |
| C=CC(=O)Nc1cccc(-c2n[nH]c3c2CCCC3)c1 [GO4] | 11 nM | 65.16% | 95.15% | 0% | < 5 min | – | – | – | – | – | – | – | – | – | – | – | – | – |
| C=CC(=O)Nc1cccc(-c2n[nH]c3ccccc23)c1 [GO32] | 6 nM | 78.14% | 96.29% | 0% | < 5 min | at least two orders of magnitude | 9 nM | about 25% | able to compete PCM548 binding | 79% | 11% | 79% | 58% | 14% | 8% | 22% | -6% | – |
| C=CC(=O)Nc1cccc(-c2n[nH]c3cc(C)ccc23)c1 [GO80] | 5 nM | 59.58% | 92.87% | 1% | 6 min | – | – | – | able to compete PCM548 binding | 77% | 22% | 81% | 42% | 4% | 7% | 44% | -19% | did not affect |
